Laboratory results taken from ChEMBL document CHEMBL1154980, “Tetrapeptides possessing a unique skeleton, JBIR-34 and JBIR-35, isolated from a sponge-derived actinomycete, Streptomyces sp. Sp080513GE-23” (J Nat Prod, 2010).
pIC50: −log10 of the molar value. Calls of active or inactive are those of the source. No cut-off for these calls is given here.

Columns and labels:
[1] = tested on: Radical scavenging activity; experiment: Antioxidant activity assessed as DPPH radical scavenging activity after 1 hr; format: functional
Micrococcus luteus = experiment: Antibacterial activity against Micrococcus luteus; format: functional, organism-based
Escherichia coli = experiment: Antibacterial activity against Escherichia coli; format: functional, organism-based

Row | pIC50 [1] | SMILES | Activity (Micrococcus luteus) | Activity (Escherichia coli)
1 | 4.30 | Cc1c(C)c2c(c(C)c1O)CC[C@@](C)(CCC[C@H](C)CCC[C@H](C)CCCC(C)C)O2 [ALPHA-TOCOPHEROL] | – | –
2 | 2.60 | C[C@@H](NC(=O)[C@@]1(C)COC(c2cn(C)c3cc(Cl)cc(O)c23)=N1)C(=O)N[C@@H](CO)C(=O)O | inactive | inactive
3 | 3.00 | Cc1c(Cl)cc2c(c(C3=N[C@@](C)(C(=O)N[C@H](C)C(=O)N[C@@H](CO)C(=O)O)CO3)cn2C)c1O | inactive | inactive
